What was measured:
Plasmopara viticola = Plasmopara viticola (downy mildew of grapevine), grapevine leaf disk assay, preventive; assay type: in vivo; details: foliar, 168 h, 200 ppm, grapevine leaf disks, assessed seven days after inoculation, read-out: control of fungal infection, Plasmopara viticola
[1] = tested on: Erysiphe graminis f.sp. tritici; test: Erysiphe graminis f.sp. tritici (wheat powdery mildew), wheat leaf segment assay, preventive; assay type: in vivo; details: Blumeria graminis, foliar, 96 h; 200 ppm; wheat leaf segments; assessed four days after inoculation; read-out: control of fungal infection, Etysiphe graminis f.sp. tritici
Phytophthora infestans = test: whole plant or invertebrate; assay type: in vivo; details: in Solanum lycopersicum, foliar, 96 h, read-out: control of fungal infection, Phytophthora infestans
Septoria tritici = Septoria tritici (leaf blotch), liquid culture growth inhibition in nutrient broth; assay type: cell-based; details: Zymoseptoria tritici; 200 ppm; PDB broth, 24 C; inhibition of growth determined photometrically after 72 hrs; read-out: control of fungal infection, Septoria tritici
Pythium ultimum = Pythium ultimum (Damping off), liquid culture growth inhibition in potato dextrose broth; assay type: cell-based; details: Globisporangium ultimum; 20 ppm; potato dextrose broth, 24° C.; inhibition of growth determined photometrically after 48 hours; read-out: control of fungal infection, Pythium ultimum

Row | Structure (SMILES) | pest or weed control at 200 ppm (Plasmopara viticola) [%] | pest or weed control at 200 ppm [1] [%] | pest or weed control at 200 ppm (Phytophthora infestans) [%] | inhibition of growth at 200 ppm (Septoria tritici) [%] | inhibition of growth at 20 ppm (Pythium ultimum) [%]
1 | CCON=CC(C)(C)NC(=O)C(CC)Oc1ccc2ncc(I)cc2c1 (centres unmarked) [Compound No. 3, N-(2-Ethoxyimino-1,1-dimethyl-ethyl)-2-(3-iodo-quinolin-6-yloxy)-butyramide] | ≥ 60 | ≥ 60 | ≥ 60 | ≥ 60 | –
2 | C=CCON=CC(C)(C)NC(=O)C(CC)Oc1cc(C)c2ncc(I)cc2c1 (centres unmarked) [Compound No. 7, N-(2-allyloxyimino-1,1-dimethyl-ethyl)-2-(3-iodo-8-methyl-quinolin-6-yloxy)-butyramide] | – | ≥ 60 | – | ≥ 60 | –
3 | CSC(Oc1ccc2ncc(Br)cc2c1)C(=O)NC(C)(C)C=NOCc1ccc(Cl)cc1 (centres unmarked) [Compound No. 9, 2-(3-Bromo-quinolin-6-yloxy)-N-[2-(4-chloro-benzyloxyimino)-1,1-dimethyl-ethyl]-2-methylsulfanyl-acetamide] | – | – | – | ≥ 60 | –
4 | CSC(Oc1ccc2ncc(Br)cc2c1)C(=O)NC(C)(C)C=NOC(C)(C)C (centres unmarked) [Compound No. 12, 2-(3-Bromo-quinolin-6-yloxy)-N-(2-tert-butoxyimino-1,1-dimethyl-ethyl)-2-methylsulfanyl-acetamide] | – | – | – | ≥ 60 | ≥ 60
5 | CCCCON=CC(C)(C)NC(=O)C(Oc1ccc2ncc(Br)cc2c1)SC (centres unmarked) [Compound No. 14, 2-(3-Bromo-quinolin-6-yloxy)-N-(2-butoxyimino-1,1-dimethyl-ethyl)-2-methylsulfanyl-acetamide] | ≥ 60 | – | ≥ 60 | – | ≥ 60
6 | CSC(Oc1ccc2ncc(Br)cc2c1)C(=O)NC(C)(C)C=NOCC(C)C (centres unmarked) [Compound No. 18, 2-(3-Bromo-quinolin-6-yloxy)-N-(2-iso-butoxyimino-1,1-dimethyl-ethyl)-2-methylsulfanyl-acetamide] | ≥ 60 | – | – | ≥ 60 | –
7 | CSC(Oc1cc(C)c2ncc(Br)cc2c1)C(=O)NC(C)(C)C=NOC(C)(C)C (centres unmarked) [Compound No. 22, 2-(3-Bromo-8-methyl-quinolin-6-yloxy)-N-(2-tert-butoxyimino-1,1-dimethyl-ethyl)-2-methylsulfanyl-acetamide] | – | – | – | ≥ 60 | –
8 | CCOC(=O)C(C)(C)O/N=C/C(C)(C)NC(=O)C(Oc1cc(C)c2ncc(Br)cc2c1)SC (centres unmarked) [Compound No. 24, 2-[2-[2-(3-Bromo-8-methyl-quinolin-6-yloxy)-2-methylsulfanyl-acetylamino]-2-methyl-prop-(E)-ylideneaminooxy]-2-methyl-propionic acid ethyl ester] | – | – | – | ≥ 60 | –
9 | CSC(Oc1cc(C)c2ncc(Br)cc2c1)C(=O)NC(C)(C)C=NOCC(C)C (centres unmarked) [Compound No. 25, 2-(3-Bromo-8-methyl-quinolin-6-yloxy)-N-(2-isobutoxyimino-1,1-dimethyl-ethyl)-2-methylsulfanyl-acetamide] | – | – | – | ≥ 60 | –
10 | C=CCON=CC(C)(C)NC(=O)C(Oc1cc(C)c2ncc(Br)cc2c1)SC (centres unmarked) [Compound No. 28, N-(2-Allyloxyimino-1,1-dimethyl-ethyl)-2-(3-bromo-8-methyl-quinolin-6-yloxy)-2-methylsulfanyl-acetamide] | ≥ 60 | – | – | ≥ 60 | –
11 | CCCCON=CC(C)(C)NC(=O)C(Oc1cc(C)c2ncc(Br)cc2c1)SC (centres unmarked) [Compound No. 30, 2-(3-Bromo-8-methyl-quinolin-6-yloxy)-N-(2-butoxyimino-1,1-dimethyl-ethyl)-2-methylsulfanyl-acetamide] | – | – | – | ≥ 60 | –
12 | CON=CC(C)(C)NC(=O)C(Oc1cc(Cl)c2ncc(Br)cc2c1)SC (centres unmarked) [Compound No. 35, 2-(3-Bromo-8-chloro-quinolin-6-yloxy)-N-(2-methoxyimino-1,1-dimethyl-ethyl)-2-methylsulfanyl-acetamide] | – | – | – | ≥ 60 | ≥ 60
13 | CCON=CC(C)(C)NC(=O)C(Oc1cc(Cl)c2ncc(Br)cc2c1)SC (centres unmarked) [Compound No. 36, 2-(3-Bromo-8-chloro-quinolin-6-yloxy)-N-(2-ethoxyimino-1,1-dimethyl-ethyl)-2-methylsulfanyl-acetamide] | ≥ 60 | ≥ 60 | – | ≥ 60 | –
14 | CON=CC(C)(C)NC(=O)C(Oc1ccc2ncc(C#C[Si](C)(C)C)cc2c1)SC (centres unmarked) [Compound No. 37, N-(2-methoxyimino-1,1-dimethyl-ethyl)-2-methylsulfanyl-2-(3-trimethylsilanylethynyl-quinolin-6-yloxy)-acetamide] | ≥ 60 | ≥ 60 | ≥ 60 | ≥ 60 | –
15 | CSC(Oc1cc(C)c2ncc(I)cc2c1)C(=O)NC(C)(C)CC=NOC(C)(C)C (centres unmarked) [Compound No. 43, N-(3-tert-Butoxyimino-1,1-dimethyl-propyl)-2-(3-iodo-8-methyl-quinolin-6-yloxy)-2-methylsulfanyl-acetamide] | – | – | – | ≥ 60 | –
16 | CSC(Oc1cc(C)c2ncc(I)cc2c1)C(=O)NC(C)(C)CC=NOCc1ccccc1 (centres unmarked) [Compound No. 47, N-(3-Benzyloxyimino-1,1-dimethyl-propyl)-2-(3-iodo-8-methyl-quinolin-6-yloxy)-2-methylsulfanyl-acetamide] | ≥ 60 | – | – | ≥ 60 | –
17 | CON=CC(C)(C)NC(=O)C(Cc1cc(C)c2ccsc2c1)SC (centres unmarked) [Compound No. 82, N-(2-Methoxyimino-1,1-dimethyl-ethyl)-3-(4-methyl-benzo[b]thiophen-6-yl)-2-methylsulfanyl-propionamide] | ≥ 60 | – | – | ≥ 60 | ≥ 60
18 | CON=CCC(C)(C)NC(=O)C(Oc1ccc2ncc(I)cc2c1)SC (centres unmarked) [Compound No. 92, 2-(3-iodo-quinolin-6-yloxy)-N-(3-methoxyimino-1,1-dimethyl-propyl)-2-methylsulfanyl-acetamide] | – | – | – | – | ≥ 60
19 | CON=C(C)CC(C)(C)NC(=O)C(Oc1ccc2ncc(Br)cc2c1)SC (centres unmarked) [Compound No. 104, 2-(3-Bromo-quinolin-6-yloxy)-N-(3-methoxyimino-1,1-dimethyl-butyl)-2-methylsulfanyl-acetamide] | ≥ 60 | ≥ 60 | ≥ 60 | – | –
20 | CSC(Oc1ccc2ncc(Br)cc2c1)C(=O)NC(C)(C)C=NOCc1ccccc1 (centres unmarked) [Compound No. 109, N-(2-Benzyloxyimino-1,1-dimethyl-ethyl)-2-(3-bromo-quinolin-6-yloxy)-2-methylsulfanyl-acetamide] | ≥ 60 | – | ≥ 60 | ≥ 60 | –
21 | CSC(Oc1cc(C)c2ncc(Br)cc2c1)C(=O)NC(C)(C)C=NOCc1ccccc1 (centres unmarked) [Compound No. 110, N-(2-Benzyloxyimino-1,1-dimethyl-ethyl)-2-(3-bromo-8-methyl-quinolin-6-yloxy)-2-methylsulfanyl-acetamide] | – | – | – | ≥ 60 | –
22 | CCON=C(Cc1ccsc1)C(C)(C)NC(=O)C(Oc1ccc2ncc(Br)cc2c1)SC (centres unmarked) [Compound No. 125, 2-(3-Bromo-quinolin-6-yloxy)-N-{2-[(E or Z)-ethoxyimino]-1,1-dimethyl-3-thiophen-3-yl-propyl}-2-methylsulfanyl-acetamide] | ≥ 60 | – | – | ≥ 60 | –
23 | C=CCON=C(Cc1ccsc1)C(C)(C)NC(=O)C(Oc1ccc2ncc(Br)cc2c1)SC (centres unmarked) [Compound No. 126, N-{2-[(E or Z)-Allyloxyimino]-1,1-dimethyl-3-thiophen-3-yl-propyl}-2-(3-bromo-quinolin-6-yloxy)-2-methylsulfanyl-acetamide] | ≥ 60 | – | – | ≥ 60 | –
24 | CON=C(Cc1ccccn1)C(C)(C)NC(=O)C(Oc1ccc2ncc(Br)cc2c1)SC (centres unmarked) [Compound No. 127, 2-(3-Bromo-quinolin-6-yloxy)-N-{2-[(E or Z)-methoxyimino]-1,1-dimethyl-3-pyridin-2-yl-propyl}-2-methylsulfanyl-acetamide] | ≥ 60 | – | – | ≥ 60 | ≥ 60
25 | CCON=C(Cc1ccccn1)C(C)(C)NC(=O)C(Oc1ccc2ncc(Br)cc2c1)SC (centres unmarked) [Compound No. 128, 2-(3-Bromo-quinolin-6-yloxy)-N-{2-[(E or Z)-ethoxyimino]-1,1-dimethyl-3-pyridin-2-yl-propyl}-2-methylsulfanyl-acetamide] | – | – | – | ≥ 60 | ≥ 60
26 | CCc1cc(OC(SC)C(=O)NC(C)(C)C=NOC)cc2cc(Br)cnc12 (centres unmarked) [Compound No. 133, 2-(3-Bromo-8-ethyl-quinolin-6-yloxy)-N-(2-methoxyimino-1,1-dimethyl-ethyl)-2-methylsulfanyl-acetamide] | ≥ 60 | – | – | ≥ 60 | –
27 | C#Cc1cnc2c(C)cc(OC(CC)C(=O)NC(C)(C)C=NOCC(C)C)cc2c1 (centres unmarked) [Compound No. 136, 2-(3-Ethynyl-8-methyl-quinolin-6-yloxy)-N-(2-isobutoxyimino-1,1-dimethyl-ethyl)-butyramide] | – | – | – | ≥ 60 | –
28 | C#Cc1cnc2c(C)cc(OC(CC)C(=O)NC(C)(C)C=NOC(C)(C)C)cc2c1 (centres unmarked) [Compound No. 137, N-(2-tert-Butoxyimino-1,1-dimethyl-ethyl)-2-(3-ethynyl-8-methyl-quinolin-6-yloxy)-butyramide] | – | ≥ 60 | – | ≥ 60 | –
29 | CCC(Oc1ccc2ncc(Br)cc2c1)C(=O)NC(C)(C)C=NO (centres unmarked) [Compound No. 150, 2-(3-Bromo-quinolin-6-yloxy)-N-(2-hydroxyimino-1,1-dimethyl-ethyl)-butyramide] | – | – | ≥ 60 | – | ≥ 60
